The results in this text go back to patent publication US7858665B2, “Drugs for chronic pain” (Nicox S.A., priority 2002, dated 2010).

Assay [1] deals with human umbilical vein cells. The experiment in a line: NO generation by NO-donors in endothelial cells (chemiluminescence). Format: cell-based. As to conditions: incubation of 100 μl nicorandil, 5 minutes. The procedure: Plated human umbilical vein cells with density of 10^3 cells/well, have been incubated 5 minutes with NO-donor scalar concentrations (1-100 μg/ml). Incubation medium (physiological solvent, i.e. Tyrode) has been then analysed to ascertain the ability to generate NO by means of: 1) nitric oxide detection by chemiluminescence, As far as chemiluminescence analysis is concerned, a 100 μl aliquot has been injected into reaction chamber of an chemiluminescence analyzer containing glacial acetic acid and potassium iodide. […] As usual in devices measuring chemiluminescence, the produced luminescence is directly proportional to the generated NO levels and can be measured by means of the suitable photomultiplier unity of an chemiluminescence analyzer. The photomultiplier turns incident light into electric voltage, that then is quantitatively registered. Referring to a calibration curve, obtained with scalar nitrite concentrations, it has been possible to quantitatively evaluate the concentration of the generated NO. For example, from incubation of […], an amount of about 10 μM NO was generated.

The subject of the next assay is washed human platelets. The experiment in a line: NO generation by NO-donors in platelets (chemiluminescence). The settings on record: incubation of 100 μM, 5 minutes. The assay is classed as cell-based. As for the experimental part:
Washed human platelets have been used, obtained as described by Radomski et al., (Br. J. Pharmacol. 92, 639-1987). Amounts of 0.4 ml were incubated 5 minutes with scalar NO-donor concentrations (1-100 μg/ml). […] As to the chemiluminescence assay, also in this case on the basis of a calibration curve plotted with nitrite scalar concentrations, it has been possible to quantitatively define the concentration of the generated NO. For example, after incubation of 100 μM nicorandil, an amount of 35 μM of NO was generated.

Assay [2] has as its system male Swiss mice. Nature of the assay: Writhing test (acetic acid-induced abdominal contractions). The settings on record: for Contractions number: 1 h before i.p. acetic acid, total contractions within 15 minutes. The assay is classed as in vivo. As for the experimental part: Nine groups of male Swiss mice (20-25 g, Charles River), 10 animals each, received by oral administration through gastric tube (gavage) gabapentin in an amount of from 1 to 10 mg/kg or the compound of the invention (XVA, Example 1), hereinafter NO-gabapentin, in an amount of from 1 to 10 mg/kg dissolved in saline solution. One hour after administration of the compound solutions, through intraperitoneal injection the mice received a glacial acetic acid solution (0.5 ml, 0.6%). Within 15 minutes subsequent to the administration of acetic acid, in every animal the number of abdominal contractions was counted. Analysis was carried out in blind.
The results reported in Table 1 are given as the number of total contractions within the observation time (15 minutes).
(In general: Writhing tests count abdominal constrictions after an irritant is injected.)

The subject of assay [3] is male Swiss mice. The experiment in a line: Paw licking test (formalin injected in paw). Format: in vivo. The settings on record: for paw licking Phase I: phase I 0-15 minutes after formalin; for paw licking Phase I / paw licking Phase II: 3 mg/kg oral (gabapentin 17.5 μm/kg, NO-gabapentin 8.5 μm/kg), 1 h before formalin; for paw licking Phase II: phase II 15-30 minutes after formalin. As for the experimental part: Three groups of male Swiss mice (20-25 g, Charles River), 10 animals each, received by oral administration as in Example F1 gabapentin in an amount of 3 mg/kg (17.5 μm/kg) or the compound of formula (XVA, Example 1), hereinafter NO-gabapentin, in an amount of 3 mg/kg (8.5 μm/kg) dissolved in saline solution. The control group received an equal volume of saline solution. One hour after administration of the compound solutions, the mice were injected with formalin in the paw (10 μl).
The formalin injection induced a biphasic reaction. In first phase (phase I, 0-15 minutes) an acute inflammation was observed; in the second phase (phase II, 15-30 minutes) a release of chemical mediators occurred as in neurophatic pain. Within 30 minutes subsequent to formalin injection, in each animal the time in seconds in which the animal licked its paw was recorded. Analysis was carried out in blind.
The results reported in Table 2 are expressed as the entire time in seconds in which paw licking in animals during the first and second phase as defined above was observed.

The test system of assay [4] is chronic constriction injury of the rat sciatic nerve. Nature of the assay: Neuropathic pain model: chronic constriction injury of the rat sciatic nerve, vocalization threshold to paw pressure. The assay is classed as in vivo. As to conditions: for Vocalization threshold to pressure in the injured paw (VTPP): 175 μmoles/kg, ip, day 14 post lesion. From the text: We have tested the antinoceptive effects of compound of formula (XVA, Example 1), hereinafter NO-gabapentin, in the model of neuropathic pain constituted by the chronic constriction injury of the rat sciatic nerve. The parent compound gabapentin has been used as reference drug.
The unilateral peripheal mononeuropathy was obtained according to the method described by Bennet G J and Xie Y K, Pain (33) 1988: 87-107. Sample populations ranging from 8 to 12 rats (SD males weighting 250-300 g) for condition were used. The antinoceptive effect of the drugs was determined by measuring the vocalization threshold (VTPP) elicited by paw pressure both at the injured and at the controlateral side. The test was performed at day 14 post lesion. All compounds were tested for acute antinoceptive effects. Acute effects were determined within 60 min following a single intraperitoneal (i.p.) injection of the drugs prior to the test.
Each group of the rats received gabapentin at the dose of 30 mg/kg (175 μmoles/kg), or an equimolar dose of NO-gabapentin (175 μmoles/kg), or the same volume of vehicle (Control group). The drugs were dissolved (20 mg/mL) in vehicle containing saline: DMSO: Castor oil (68:8:24).

On to `O=C(NCCO[N+](=O)[O-])c1cccnc1` [nicorandil], for which the results for the “amount of NO generated” value (in assay [1]; in the assay on washed human platelets) were “about 10 μM” and 35 µM, respectively.

Turning to `O=C(O)CC1(CNC(=O)c2ccc(CO[N+](=O)[O-])cc2)CCCCC1` [NO-gabapentin, 1-[4-(nitrooxymethyl)benzoylaminomethyl]-cyclohexaneacetic acid], in the assay with male Swiss mice [2] (1 to 10 mg/kg oral), the “activity in inhibiting abdominal contraction amount, compared with gabapentin” value is “more active than precursor drug”. The Contractions number with male Swiss mice [2] (dose 1 mg/kg oral) is listed as 24; in the assay on male Swiss mice [2] (dose 3 mg/kg oral) it was 15; in the assay with male Swiss mice [2] (dose 10 mg/kg oral) it was 15. In the assay with male Swiss mice [3], the “paw licking Phase I” value turned out to be 50 s. Moreover, in the assay with male Swiss mice [3] (phase I, molar dose corresponding to 50% of gabapentin), the “activity in inhibiting paw licking in first phase, compared with gabapentin” value is on record as “more active than the starting drug”. The “paw licking Phase II” value in the assay on male Swiss mice [3] is 60 s. For the same compound, the “effectiveness in second phase, compared with gabapentin” value in the assay with male Swiss mice [3] (phase II, molar dose corresponding to 50% of gabapentin) is “less effective”. Besides, the “Vocalization threshold to pressure in the injured paw (VTPP)” value in assay [4] (0 min post-dosing) is recorded as 153 ± 10 grams; in assay [4] (5 min post-dosing), 187 ± 10 grams; in assay [4] (10 min post-dosing), 307 ± 14 grams; in assay [4] (20 min post-dosing), 325 ± 08 grams; in assay [4] (40 min post-dosing), 390 ± 11 grams; in assay [4] (60 min post-dosing) it was 382 ± 09 grams. In addition, the “antinoceptive efficacy compared with gabapentin” value in assay [4] (equimolar dose 175 μmoles/kg i.p.) is “more efficacious than gabapentin”.

In the case of `NCC1(CC(=O)O)CCCCC1` [Gabapentin, 1-(aminomethyl)cyclohexaneacetic acid, reference compound], the Contractions number in the assay on male Swiss mice [2] (dose 1 mg/kg oral) came to 32; in the assay with male Swiss mice [2] (dose 3 mg/kg oral), 22; in the assay with male Swiss mice [2] (dose 10 mg/kg oral), 27. Besides, in the assay with male Swiss mice [3], the “paw licking Phase I” value was 85 s. In addition, the “paw licking Phase II” value in the assay on male Swiss mice [3] is 30 s. Besides, the “Vocalization threshold to pressure in the injured paw (VTPP)” value in assay [4] (0 min post-dosing) came to 160 ± 10 grams; in assay [4] (5 min post-dosing), 165 ± 23 grams; in assay [4] (10 min post-dosing) it was 191 ± 29 grams; in assay [4] (20 min post-dosing), 250 ± 24 grams; in assay [4] (40 min post-dosing) it was 266 ± 26 grams; in assay [4] (60 min post-dosing) it was 250 ± 38 grams.
